From patent US10738056B2 (Aduro BioTech, Inc., priority 2017, dated 2020)

Target: Human cGAS amino acids 155-522 (Homo sapiens (Human), UniProt Q8N884)
Test: cGAS biochemical activity assay (ATP remaining, Kinase-Glo Max luminescence)
Settings: human cGAS 155-522, ATP remaining (Kinase-Glo Max); read-out: cGAS IC50

Human cGAS amino acids 155-522, sequence (Q8N884 157-522): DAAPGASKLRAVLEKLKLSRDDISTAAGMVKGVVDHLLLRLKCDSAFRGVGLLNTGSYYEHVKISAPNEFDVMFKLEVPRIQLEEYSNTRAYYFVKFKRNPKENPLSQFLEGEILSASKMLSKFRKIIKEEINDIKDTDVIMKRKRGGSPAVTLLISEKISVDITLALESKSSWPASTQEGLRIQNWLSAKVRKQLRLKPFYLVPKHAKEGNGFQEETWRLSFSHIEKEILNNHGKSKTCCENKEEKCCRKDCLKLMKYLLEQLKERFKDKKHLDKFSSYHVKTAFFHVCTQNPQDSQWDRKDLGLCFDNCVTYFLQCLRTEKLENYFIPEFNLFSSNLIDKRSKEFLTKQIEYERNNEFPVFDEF

| Compound | IC50 [µM] |
| --- | --- |
| Cc1[nH]c2c(-c3ccccc3)c(C(F)(F)F)nn2c(=O)c1C(=O)N[C@H]1CCNC1 [Compound A1035, (S)-5-methyl-7-oxo-3-phenyl-N-(pyrrolidin-3-yl)-2-(trifluoromethyl)-4,7-dihydropyrazolo[1,5-a]pyrimidine-6-carboxamide] | > 250 |
| Cc1[nH]c2c(-c3ccccc3)c(C(F)(F)F)nn2c(=O)c1C(=O)Nc1ccccc1C#N [Compound A1036, N-(2-cyanophenyl)-5-methyl-7-oxo-3-phenyl-2-(trifluoromethyl)-4,7-dihydropyrazolo[1,5-a]pyrimidine-6-carboxamide] | 20 to 250 |
| COc1c(Cl)cccc1NC(=O)c1c(C)[nH]c2c(-c3ccccc3)c(C(F)(F)F)nn2c1=O [Compound A1138, N-(3-chloro-2-methoxyphenyl)-5-methyl-7-oxo-3-phenyl-2-(trifluoromethyl)-4,7-dihydropyrazolo[1,5-a]pyrimidine-6-carboxamide] | 20 to 250 |
| Cc1[nH]c2c(-c3ccccc3)c(C(F)(F)F)nn2c(=O)c1C(=O)NC1CCOCC1 [Compound A1025, 5-methyl-7-oxo-3-phenyl-N-(tetrahydro-2H-pyran-4-yl)-2-(trifluoromethyl)-4,7-dihydropyrazolo[1,5-a]pyrimidine-6-carboxamide] | 20 to 250 |
| Cc1ccccc1NC(=O)c1c(C)[nH]c2c(-c3ccccc3)c(C(F)(F)F)nn2c1=O [Compound A1037, 5-methyl-7-oxo-3-phenyl-N-(o-tolyl)-2-(trifluoromethyl)-4,7-dihydropyrazolo[1,5-a]pyrimidine-6-carboxamide] | 20 to 250 |
| COc1ccccc1NC(=O)c1c[nH]c2c(-c3ccccc3)c(C(F)(F)F)nn2c1=O [Compound A1057, N-(2-methoxyphenyl)-7-oxo-3-phenyl-2-(trifluoromethyl)-4,7-dihydropyrazolo[1,5-a]pyrimidine-6-carboxamide] | 20 to 250 |
| Cc1[nH]c2c(-c3ccccc3)c(C(F)(F)F)nn2c(=O)c1C(=O)N[C@@H]1CCCC[C@H]1N [Compound A1014, N-((1R,2R)-2-aminocyclohexyl)-5-methyl-7-oxo-3-phenyl-2-(trifluoromethyl)-4,7-dihydropyrazolo[1,5-a]pyrimidine-6-carboxamide] | 20 to 250 |
| COc1cccc(NC(=O)c2c(C)[nH]c3c(-c4ccccc4)c(C4CC4)nn3c2=O)c1 [Compound A1123, 2-cyclopropyl-N-(3-methoxyphenyl)-5-methyl-7-oxo-3-phenyl-4,7-dihydropyrazolo[1,5-a]pyrimidine-6-carboxamide] | > 250 |
| Cc1[nH]c2c(-c3ccccc3)c(C(F)(F)F)nn2c(=O)c1C(=O)Nc1ccnnc1 [Compound A1018, 5-methyl-7-oxo-3-phenyl-N-(pyridazin-4-yl)-2-(trifluoromethyl)-4,7-dihydropyrazolo[1,5-a]pyrimidine-6-carboxamide] | 20 to 250 |
| Cc1[nH]c2c(-c3ccccc3)c(C(F)(F)F)nn2c(=O)c1C(=O)NC1CCCCC1 [Compound A1010, N-cyclohexyl-5-methyl-7-oxo-3-phenyl-2-(trifluoromethyl)-4,7-dihydropyrazolo[1,5-a]pyrimidine-6-carboxamide] | 20 to 250 |
| Cc1[nH]c2c(-c3ccccc3)c(C(F)(F)F)nn2c(=O)c1C(=O)Nc1ccncc1 [Compound A1047, 5-methyl-7-oxo-3-phenyl-N-(pyridin-4-yl)-2-(trifluoromethyl)-4,7-dihydropyrazolo[1,5-a]pyrimidine-6-carboxamide] | 20 to 250 |
| Cc1[nH]c2c(-c3ccccc3)c(C(F)(F)F)nn2c(=O)c1C(=O)Nc1ccc(C#N)cc1 [Compound A1015, N-(4-cyanophenyl)-5-methyl-7-oxo-3-phenyl-2-(trifluoromethyl)-4,7-dihydropyrazolo[1,5-a]pyrimidine-6-carboxamide] | 20 to 250 |
| COc1cccc(NC(=O)c2c(C)[nH]c3c(-c4ccccc4)c(C(F)(F)F)nn3c2=O)c1Br [Compound A1131, N-(2-bromo-3-methoxyphenyl)-5-methyl-7-oxo-3-phenyl-2-(trifluoromethyl)-4,7-dihydropyrazolo[1,5-a]pyrimidine-6-carboxamide] | 20 to 250 |
| Cc1[nH]c2c(-c3ccccc3)c(C(F)(F)F)nn2c(=O)c1C(=O)Nc1ccc(Cl)cc1 [Compound A1016, N-(4-chlorophenyl)-5-methyl-7-oxo-3-phenyl-2-(trifluoromethyl)-4,7-dihydropyrazolo[1,5-a]pyrimidine-6-carboxamide] | 20 to 250 |
| Cc1[nH]c2c(-c3ccccc3)c(C(F)(F)F)nn2c(=O)c1C(=O)NC1CCCC1 [Compound A1008, N-cyclopentyl-5-methyl-7-oxo-3-phenyl-2-(trifluoromethyl)-4,7-dihydropyrazolo[1,5-a]pyrimidine-6-carboxamide] | 20 to 250 |
| Cc1[nH]c2c(-c3ccccc3)c(C(F)(F)F)nn2c(=O)c1C(=O)Nc1cccc(NS(C)(=O)=O)c1 [Compound A1045, 5-methyl-N-(3-(methylsulfonamido)phenyl)-7-oxo-3-phenyl-2-(trifluoromethyl)-4,7-dihydropyrazolo[1,5-a]pyrimidine-6-carboxamide] | < 20 |
| Cc1[nH]c2c(-c3ccccc3)c(C(F)(F)F)nn2c(=O)c1C(=O)N[C@H]1CCN(C(=O)OC(C)(C)C)C1 [Compound A1034, tert-butyl (S)-3-(5-methyl-7-oxo-3-phenyl-2-(trifluoromethyl)-4,7-dihydropyrazolo[1,5-a]pyrimidine-6-carboxamido)pyrrolidine-1-carboxylate] | > 250 |
| Cc1[nH]c2c(-c3ccccc3)c(C(F)(F)F)nn2c(=O)c1C(=O)Nc1[nH]nc(C(F)(F)F)c1C(C)C [Compound A1058, N-(4-isopropyl-3-(trifluoromethyl)-1H-pyrazol-5-yl)-5-methyl-7-oxo-3-phenyl-2-(trifluoromethyl)-4,7-dihydropyrazolo[1,5-a]pyrimidine-6-carboxamide] | 20 to 250 |

Further lines, results first:

| IC50 [µM] | Compound |
| --- | --- |
| 20 to 250 | COc1cccc2oc(-c3c(C)[nH]c4c(-c5ccccc5)c(C#CC5CC5)nn4c3=O)nc12 [Compound C1228, 2-(cyclopropylethynyl)-6-(4-methoxybenzo[d]oxazol-2-yl)-5-methyl-3-phenylpyrazolo[1,5-a]pyrimidin-7(4H)-one] |
| 20 to 250 | COc1cccc2oc(-c3c(C)[nH]c4c(-c5ccccn5)c(C(F)(F)F)nn4c3=O)nc12 [Compound C1127, 6-(4-methoxybenzo[d]oxazol-2-yl)-5-methyl-3-(pyridin-2-yl)-2-(trifluoromethyl)pyrazolo[1,5-a]pyrimidin-7(4H)-one] |
| 20 to 250 | COCC1CCCN1c1nnc(-c2c(C)[nH]c3c(-c4ccccc4)c(C(F)(F)F)nn3c2=O)o1 (centres unmarked) [Compound D1059, 6-(5-(2-(methoxymethyl)pyrrolidin-1-yl)-1,3,4-oxadiazol-2-yl)-5-methyl-3-phenyl-2-(trifluoromethyl)pyrazolo[1,5-a]pyrimidin-7(4H)-one] |
| < 20 | Cc1[nH]c2c(-c3ccccc3)c(C#N)nn2c(=O)c1-c1ncco1 [Compound C1270, 5-methyl-6-(oxazol-2-yl)-7-oxo-3-phenyl-4,7-dihydropyrazolo[1,5-a]pyrimidine-2-carbonitrile] |
| < 20 | Cc1[nH]c2c(-c3ccccc3)c(C(F)(F)F)nn2c(=O)c1-c1nnc(C2CCCC2)o1 [Compound D1003, 6-(5-cyclopentyl-1,3,4-oxadiazol-2-yl)-5-methyl-3-phenyl-2-(trifluoromethyl)pyrazolo[1,5-a]pyrimidin-7(4H)-one] |
| 20 to 250 | COc1cccc(-c2c(C(F)(F)F)nn3c(=O)c(-c4nc5c(OC)cccc5o4)c(C)[nH]c23)c1 [Compound C1120, 6-(4-methoxybenzo[d]oxazol-2-yl)-3-(3-methoxyphenyl)-5-methyl-2-(trifluoromethyl)pyrazolo[1,5-a]pyrimidin-7(4H)-one] |
| > 250 | COc1ncccc1-c1nnc(-c2c(C)[nH]c3c(-c4ccccc4)c(C(F)(F)F)nn3c2=O)o1 [Compound D1064, 6-(5-(2-methoxypyridin-3-yl)-1,3,4-oxadiazol-2-yl)-5-methyl-3-phenyl-2-(trifluoromethyl)pyrazolo[1,5-a]pyrimidin-7(4H)-one] |
| > 250 | Cc1[nH]c2c(-c3ccccc3)c(C(F)(F)F)nn2c(=O)c1-c1ccc2nccn2c1 [Compound C1006, 6-(imidazo[1,2-a]pyridin-6-yl)-5-methyl-3-phenyl-2-(trifluoromethyl)pyrazolo[1,5-a]pyrimidin-7(4H)-one] |
| 20 to 250 | COc1cccc2oc(-c3c(C)[nH]c4c(-c5ccccc5)c(=O)[nH]n4c3=O)nc12 [Compound C1049, 6-(4-methoxybenzo[d]oxazol-2-yl)-5-methyl-3-phenylpyrazolo[1,5-a]pyrimidine-2,7(1H,4H)-dione] |
| 20 to 250 | COc1cccc2oc(-c3c(C(=O)N(C)CC(=O)O)[nH]c4c(-c5ccccc5)c(C(F)(F)F)nn4c3=O)nc12 [Compound C1197, N-(6-(4-methoxybenzo[d]oxazol-2-yl)-7-oxo-3-phenyl-2-(trifluoromethyl)-4,7-dihydropyrazolo[1,5-a]pyrimidine-5-carbonyl)-N-methylglycine] |
| > 250 | Cc1[nH]c2c(-c3cccc(F)c3)c(C(F)(F)F)nn2c(=O)c1-c1nc2c(o1)CCCC2 [Compound C1035, 3-(3-fluorophenyl)-5-methyl-6-(4,5,6,7-tetrahydrobenzo[d]oxazol-2-yl)-2-(trifluoromethyl)pyrazolo[1,5-a]pyrimidin-7(4H)-one] |
| < 20 | Cc1[nH]c2c(-c3ccccc3)c(C(F)(F)F)nn2c(=O)c1-c1nnc(-c2cccnc2O)o1 [Compound D1067, 6-(5-(2-hydroxypyridin-3-yl)-1,3,4-oxadiazol-2-yl)-5-methyl-3-phenyl-2-(trifluoromethyl)pyrazolo[1,5-a]pyrimidin-7(4H)-one] |
| < 20 | COC1CCN(c2nnc(-c3c(C)[nH]c4c(-c5ccccc5)c(C(F)(F)F)nn4c3=O)o2)C1 (centres unmarked) [Compound D1037, 6-(5-(3-methoxypyrrolidin-1-yl)-1,3,4-oxadiazol-2-yl)-5-methyl-3-phenyl-2-(trifluoromethyl)pyrazolo[1,5-a]pyrimidin-7(4H)-one] |
| 20 to 250 | Cc1cccc(-c2c(C)[nH]c3c(-c4ccccc4)c(C(F)(F)F)nn3c2=O)c1 [Compound C1002, 5-methyl-3-phenyl-6-(m-tolyl)-2-(trifluoromethyl)pyrazolo[1,5-a]pyrimidin-7(4H)-one] |
